# Assay results reported in patent US9040673B2, “Synthesis and identification of novel RSK-specific inhibitors” (University of Virginia Patent Foundation, priority 2009, dated 2015).
# Where two headings read alike, the source gives them in different places.
# Tests used:
# [1] = test system: MCF-7 cells; assay: MCF-7 cell proliferation (CellTiter-Glo cell viability); assay type: cell-based, human; details: for inhibition of MCF-7 cell growth: 50 uM; for IC50: 48 hours of treatment, read-out: concentration inhibiting proliferation of MCF-7 cells by 50%
# [2] = biological target: RSK2 (Homo sapiens, UniProt P51812)
# Chain of RSK2 (P51812 1-397 limits assumed): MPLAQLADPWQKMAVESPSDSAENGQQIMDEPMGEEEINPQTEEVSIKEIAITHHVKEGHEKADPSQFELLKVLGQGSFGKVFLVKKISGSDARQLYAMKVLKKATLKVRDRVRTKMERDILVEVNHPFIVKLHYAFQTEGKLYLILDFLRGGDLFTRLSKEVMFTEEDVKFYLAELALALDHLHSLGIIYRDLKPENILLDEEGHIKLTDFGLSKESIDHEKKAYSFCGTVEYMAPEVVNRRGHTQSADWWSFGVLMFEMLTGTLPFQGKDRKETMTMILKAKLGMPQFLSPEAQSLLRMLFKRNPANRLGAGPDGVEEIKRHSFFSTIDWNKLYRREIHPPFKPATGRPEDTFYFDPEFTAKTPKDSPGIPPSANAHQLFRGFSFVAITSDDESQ
# [3] = test system: MCF-10A cells; assay: MCF-10A cell proliferation; assay type: cell-based, human
# Experimental: The cell number was measured after 48 h of treatment. Values given are the fold proliferation as a percentage of that observed with vehicle-treated cells. Points, mean (n=2 in quadruplicate); bars=SD.
# FIGS. 8A-8D SL0101-1 inhibits the proliferation of cancer cells but not normal cells. […] Cell viability was measured at indicated time points. Proliferation assays were conducted using CellTiter-Glo Luminescent Cell Viability Assay (Promega), performed 44 hrs after treatment for FIGS. 8A &B and at indicated points for FIG. 8C. The data are expressed relative to time 0.
# (§1) Cell Culture. For proliferation studies cells were seeded at 2500 to 5000 cells per well in 96 well tissue culture plates in the appropriate medium as described by American Type Culture Collection. After 24 hr, the medium was replaced with medium containing compound or vehicle as indicated. Cell viability was measured at indicated time points using CellTiter-Glo™ assay reagent (Promega) according to manufacturer's protocol. For in vivo inhibition studies, cells were seeded at 2.5×10^5 cells/well in 12 well cell culture clusters. After 24 hr, the cells were serum starved for 24 hr then incubated with compound or vehicle for 3 hr prior to a 30 min PDB stimulation. Cells were lysed as previously described (J. Biol. Chem. 273, 13317-13323 (1998)). The lysates were normalized for total protein, electrophoresed and immunoblotted. For cell imaging, Ha-Ras-transformed NIH/3T3 cells were seeded on LABTEK II chamber slides (Nalge) at a density of 1×10^4 cells/well. After 24 hr, fresh medium was added the indicated compounds or vehicle. Images were taken 48 hr after treatment at a magnification of 20×.
# [4] = test system: HUVEC cells; assay: VEGF-induced capillary network formation in HUVEC cells; assay type: cell-based, human; details: 20 μM, 10 ng/ml VEGF, 20 hours
# Experimental: Interfering with tube formation is a characteristic common to anti-angiogenic treatments. HUVEC cells were seeded at a density of 1×10^5 cells per well in 24-well culture dishes coated in growth factor-reduced Matrigel (BD Biosciences). […] The cells were incubated at 37° C. for 20 hours. Images of the cells were captured for analysis of the capillary-like network.
# [5] = test system: p140, a RSK substrate; assay: PDB-induced p140 phosphorylation in MCF-7 cells (immunoblot); assay type: cell-based, human; details: 50 μM, 3 hr pre-incubation, 500 nM PDB 30 min
# Experimental: To determine whether SL0101-1 inhibits RSK in intact cells, phosphorylation of p140, a RSK substrate of unknown function, was examined in a human breast cancer cell line, MCF-7. MCF-7 and MCF-10A cells were pre-incubated with vehicle, 50 μM U0126 or the indicated concentration of SL0101-1 for 3 hr (FIG. 8D). Cells were treated with 500 nM PDB for 30 min prior to lysis. Protein concentration of lysates was measured and lysates were electrophoresed, transferred and immunoblotted. […] Pre-incubation of cells with 100 μM SL0101-1 abrogates phorbol dibutyrate (PDB)-induced p140 phosphorylation as does 50 μM U0126, a MEK inhibitor.
# as §1, with “The lysates were normalized for total protein, electrophoresed and immunoblotted. For cell imaging, Ha-Ras-transformed NIH/3T3 cells were seeded on LABTEK II chamber slides (Nalge) at a density of 1×10^4 cells/well. After 24 hr, fresh medium was added the indicated compounds or vehicle. Images were taken 48 hr after treatment at a magnification of 20×.” left out
# [6] = test system: CaLu-1 cells; assay: Calu-1 wound migration after siRNA transfection; assay type: cell-based, human; details: wound 48 hours after, 19 hr
# Experimental: Calu-1 cells were transiently transfected in suspension with either control siRNA, RSK1-specific siRNA, RSK2-specific siRNA or both RSK-1 and RSK2-specific siRNA. […] After four hours, the transfection medium was removed and the cells were plated in […] tissue-culture clusters. Forty-eight hours after transfection, scratches were made in the monolayer of cells using sterile, disposable micropipette tips. Images were captured-immediately following the wounding, and 19 hours after wounding. […] By 19 hr, the cells transfected with control siRNA have migrated into the wound. […] Thus, RSK activity is required for Calu-1 migration. More particularly, the ability of the entire monolayer to respond to the wound is depressed in the SL0101-treated cells as well as the siRNA transfected.
# [7] = indicated concentration, 48 h of treatment
molecule,measurement,setting,value
"CC(=O)OC1C(C)OC(Oc2c(-c3ccc(O)cc3)oc3cc(O)cc(O)c3c2=O)C(OC(C)=O)C1O [2″,4″-di-O-acetyl-SL0101, kaempferol 3-O-(2″,4″-di-O-acetyl-α-L-rhamnopyranoside)]",inhibition of MCF-7 cell growth,[1],similarly effective at inhibiting MCF-7 cell growth
same,IC50,[2],~0.26 µM
"CC(=O)O[C@@H]1[C@@H](OC(C)=O)[C@H](C)O[C@@H](Oc2c(-c3ccc(O)cc3)oc3cc(O)cc(O)c3c2=O)[C@@H]1OC(C)=O [3Ac-SL0101, kaempferol 3-O-(2″,3″,4″-tri-O-acetyl-α-L-rhamnopyranoside)]",proliferation of MCF-7 cells,[1]; [7],selectively inhibits MCF-7 breast cancer cell proliferation
same,proliferation of MCF-10A (nontransformed) cells,[3]; [7],not nontransformed breast cell proliferation
"CC(=O)OC1C(C)OC(Oc2c(-c3ccc(O)cc3)oc3cc(O)cc(O)c3c2=O)C(O)C1O [4″-mono-O-acetyl-SL0101, kaempferol 3-O-(4″-mono-O-acetyl-α-L-rhamnopyranoside)]",inhibition of MCF-7 cell growth,[1],did not inhibit MCF-7 cell proliferation
same,IC50,[2],~0.14 µM
Cn1cc(C2=C(c3cn(CCCSC(=N)N)c4ccccc34)C(=O)NC2=O)c2ccccc21 [Ro 318220],proliferation of MCF-7 cells,[1]; 500 nM,attenuated proliferation
same,proliferation of MCF-10A cells,[3]; 500 nM,attenuated proliferation
CC(C)c1cc(/C=C(\C#N)C(=O)NCCCc2ccccc2)cc(C(C)C)c1O [SU1498],capillary-like network formation,[4],rounded nodes with few tube-like projections
N#CC(=C(/N)Sc1ccccc1N)/C(C#N)=C(\N)Sc1ccccc1N [U0126],proliferation of MCF-7 cells,[1]; 50 μM (FIG. 8A),halted proliferation
same,proliferation of MCF-10A cells,[3]; 50 μM (FIG. 8A),halted proliferation
same,PDB-induced p140 phosphorylation,[5],abrogates
"CC(=O)OC1C(C)CC(Oc2c(-c3ccc(O)cc3)oc3cc(O)cc(O)c3c2=O)C(O)C1O [compound 12, Kaempferol L-carbarhamnoside 4″-acetate]",proliferation of MCF-7 cells,[1]; [7],inhibit proliferation
"CC(=O)OC1C(C)CC(Oc2c(-c3ccc(O)cc3)oc3cc(O)cc(O)c3c2=O)C(OC(C)=O)C1O [compound 13, Kaempferol L-carbarhamnoside 2″,4″-diacetate]",IC50,[1],~30 µM
same,proliferation of MCF-7 cells,[1]; [7],inhibit proliferation
"CC(=O)OC1C(C)CC(Oc2c(-c3ccc(O)cc3)oc3cc(O)cc(O)c3c2=O)C(O)C1OC(C)=O [compound 14, Kaempferol L-carbarhamnoside 3″,4″-diacetate]",IC50,"[1]; Homo sapiens, MCF7",~30 µM
same,proliferation of MCF-7 cells,[1]; [7],inhibit proliferation
"CCCC1OC(Oc2c(-c3ccc(O)cc3)oc3cc(O)cc(O)c3c2=O)C(O)C(OC(C)=O)C1OC(C)=O [compound 16, Kaempferol-6″ethyl-L-rhamnoside-3″,4″-diacetate]",IC50,"[1]; Homo sapiens, MCF7",~30 µM
same,proliferation of MCF-7 cells,[1]; [7],inhibit proliferation
O=c1c(O)c(-c2ccc(O)cc2)oc2cc(O)cc(O)c12 [kaempferol],growth of MCF-7 cells,[1]; concentration not given,slows growth
same,growth of MCF-10A cells,[3]; concentration not given,slows growth
"RSK1-specific siRNA: custom oligonucleotide to Rsk1 mRNA, AAGAAGCUGGACUUCAGCCGU; SEQ ID NO: 1 (listed as RNA, chemistry not given here; listed as Homo sapiens)",migration of Calu-1 cells into wound,[6],reduced ability to migrate into the wound
"RSK2-specific siRNA: custom oligonucleotide to Rsk2 mRNA, AACCUAUGGGAGAGGAGGAGA; SEQ ID NO: 2 (listed as RNA, chemistry not given here; listed as Homo sapiens)",migration of Calu-1 cells into wound,[6],reduced ability to migrate into the wound
